We go through 1 compound from paper PMC5679667 (PLoS ONE, 2017).

This test addresses T1, ecAT3.10 (extracellular ATeam3.10) (Bacillus sp. PS3, UniProt P07678).
T1 construct: gene atpC; ATeam3.10 (epsilon subunit between CFP and YFP) with N-terminal IgK leader and C-terminal PDGFR transmembrane anchor; on surface of Neuro2A cells
As to the kind of experiment: live-cell FRET/CFP ratio imaging. The class given is cell-based. The following applies: Neuro2A cells, continuous perfusion, pH 7.3, room temperature; printed error probably a misprint.

T1 sequence (P07678 whole entry): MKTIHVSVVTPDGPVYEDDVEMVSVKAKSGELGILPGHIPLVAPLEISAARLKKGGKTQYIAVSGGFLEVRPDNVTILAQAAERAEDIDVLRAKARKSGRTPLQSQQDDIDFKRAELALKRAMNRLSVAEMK

As for `Nc1ncnc2c1ncn2[C@@H]1O[C@H](COP(=O)(O)OP(=O)(O)O)[C@@H](O)[C@H]1O` [ADP], the “fold increase in ratio signal at 100 μM” value is given as 1.026 ± 1.005.
